Assay results published in patent US12577247B2 (BUGWORKS RESEARCH, INC., priority 2021, dated 2026).

How the values were obtained:
A2A receptor = target: T1, A2A receptor (Homo sapiens, UniProt P29274); assay: A2aR antagonism IC50, cAMP TR-FRET in HEK-293 cells, high concentration of adenosine (30 μM); type: cell-based; settings: HEK-293 cells expressing A2A receptor; agonist adenosine 30 μM; 2% HSA; inhibition of cAMP; read-out: A2AR IC50 (nM) (@30 μM Adenosine);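 note: compounds added 10 min before adenosine, then 30 min stimulation at room temperature in buffer with 100 µM rolipram and 30 µM EHNA, signal read 1 h after detection reagents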
T1 construct: host or cells: HEK-293
T1 sequence (P29274 whole entry): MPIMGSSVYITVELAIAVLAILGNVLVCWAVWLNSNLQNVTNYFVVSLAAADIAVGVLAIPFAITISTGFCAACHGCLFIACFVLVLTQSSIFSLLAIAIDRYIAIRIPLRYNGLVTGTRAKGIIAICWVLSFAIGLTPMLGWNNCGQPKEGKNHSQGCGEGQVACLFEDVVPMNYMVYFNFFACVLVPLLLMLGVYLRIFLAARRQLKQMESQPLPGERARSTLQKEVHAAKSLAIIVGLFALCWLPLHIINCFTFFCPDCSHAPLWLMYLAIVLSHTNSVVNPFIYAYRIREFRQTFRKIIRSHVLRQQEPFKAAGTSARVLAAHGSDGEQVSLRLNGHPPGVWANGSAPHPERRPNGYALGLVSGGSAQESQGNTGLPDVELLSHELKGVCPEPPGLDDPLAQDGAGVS

A2B receptor = target: T2, A2B receptor (Homo sapiens, UniProt P29275); assay: A2bR antagonism IC50, cAMP TR-FRET in HEK-293 cells, high concentration of adenosine (30 μM); settings: A2BR IC50 (nM) (@30 μM Adenosine), HEK-293 cells expressing A2B receptor; agonist adenosine 30 μM; 2% HSA; inhibition of cAMP;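 note: compounds preincubated 10 min with cells, then adenosine stimulation 30 min at room temperature in buffer with Rolipram 100 µM and EHNA 30 µM, TR-FRET read after 1 h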
T2 sequence (P29275 1-332): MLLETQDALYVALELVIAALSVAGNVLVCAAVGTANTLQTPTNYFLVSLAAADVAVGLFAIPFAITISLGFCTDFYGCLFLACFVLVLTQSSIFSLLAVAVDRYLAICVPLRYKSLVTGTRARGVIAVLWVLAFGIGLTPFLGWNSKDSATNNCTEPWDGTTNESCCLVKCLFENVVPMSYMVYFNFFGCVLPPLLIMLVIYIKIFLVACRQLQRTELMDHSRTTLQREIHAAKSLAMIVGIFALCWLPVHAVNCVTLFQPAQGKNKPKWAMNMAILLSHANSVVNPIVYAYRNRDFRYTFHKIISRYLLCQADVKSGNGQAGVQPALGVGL
Procedure: A Time-Resolved Fluorescence Energy Transfer (TR-FRET) assay was used to show the inhibition of this cAMP production in HEK cells upon treatment with compounds of the Formula I of the present disclosure.
HEK-293 cells expressing A2A receptor (#ES-011-C) or A2B receptor (#ES 013-C) were obtained from PerkinElmer. Cells were maintained in DMEM medium supplemented with 10% FBS and 200 μg/mL of G418 at 37° C. and 5% CO2. The cells were cultured in antibiotic free medium for a period of 16-20 hours prior to the assay. All subsequent steps of the assay are performed at room temperature (22-24° C.). […] About 1500 cells per well were pre-incubated for 10 minutes with the compounds of the present invention before adding the agonist Adenosine at a high concentration (30 μM) for a total stimulation time of 30 minutes. […] The assays were conducted in a stimulation buffer containing 1×DMEM, 5 mM HEPES, 2% Human serum albumin (HSA), 100 μM Rolipram and 30 μM erythro-9-(2-hydroxy-3-nonyl) adenine (EHNA). Serial dilutions of compounds were made in stimulation buffer to achieve a final concentration of high micromolar in a reaction volume of 10 μL. The total reaction volume was 10 μL (5 μL of cells, 2.5 μL of antagonist and 2.5 μL of agonist). […] The stimulation was ended, and the reaction completed by adding 5 μL of 4× Eu-cAMP tracer working solution and 5 μL of 4× ULight-anti-cAMP working solution. The TR FRET signal was measured after 1-hour incubation using a Tecan M1000 or a PerkinElmer Victor Nivo plate reader.

SMILES	IC50 (A2A receptor) [nM]	IC50 (A2B receptor) [nM]
CCc1c(C)nn2c(N)c(C#N)c(NCCc3cccc(C(C)O)n3)nc12 (single isomer, unassigned; (-)) [Example 159b, (−)-7-amino-3-ethyl-5-((2-(6-(1-hydroxyethyl)pyridine-2-yl)ethyl)amino)-2-methylpyrazolo[1,5-a]pyrimidine-6-carbonitrile]	457	1020
CCc1c(C)nn2c(N)c(C#N)c(NCCc3ccn(C4(CCNC(C)=O)CC4)n3)nc12 [Example 149, N-(2-(1-(3-(2-((7-amino-6-cyano-3-ethyl-2-methylpyrazolo[1,5-a]pyrimidin-5-yl)amino)ethyl)-1H-pyrazol-1-yl)cyclopropyl)ethyl) acetamide]	43	988
CCc1c(C)nn2c(N)c(C#N)c(NCCc3ccnn3CCCO)nc12 [Example 110, 7-amino-3-ethyl-5-((2-(1-(3-hydroxypropyl)-1H-pyrazol-5-yl)ethyl)amino)-2-methylpyrazolo[1,5-a]pyrimidine-6-carbonitrile]	> 15000	> 15000
Cc1nn2c(N)c(C#N)c(NCCc3ccn(C4(CO)CC4)n3)nc2c1C1CC1 [Example 101, 7-amino-3-cyclopropyl-5-((2-(1-(1-(hydroxymethyl)cyclopropyl)-1H-pyrazol-3-yl)ethyl)amino)-2-methylpyrazolo[1,5-a]pyrimidine-6-carbonitrile]	2100	> 15000
Cc1nn2c(N)c(C#N)c(NCCc3ccn(C4(CNC(=O)CCO)CC4)n3)nc2c1Cl [Example 99, N-((1-(3-(2-((7-amino-3-chloro-6-cyano-2-methylpyrazolo[1,5-a]pyrimidin-5-yl)amino)ethyl)-1H-pyrazol-1-yl)cyclopropyl)methyl)-3-hydroxypropanamide]	69	20000
Cc1nn2c(N)c(C#N)c(NCCc3cnn(C4(CO)CC4)c3)nc2c1Cl [Example 73, 7-amino-3-chloro-5-((2-(1-(1-(hydroxymethyl)cyclopropyl)-1H-pyrazol-4-yl)ethyl)amino)-2-methylpyrazolo[1,5-a] pyrimidine-6-carbonitrile]	> 15000	> 15000
CCc1c(C)nn2c(N)c(C#N)c(NCCc3cccn(CCOC)c3=O)nc12 [Example 107, 7-amino-3-ethyl-5-((2-(1-(2-methoxyethyl)-2-oxo-1,2-dihydropyridin-3-yl)ethyl)amino)-2-methylpyrazolo[1,5-a] pyrimidine-6-carbonitrile]	224	1550
CCc1c(C)nn2c(N)c(C#N)c(NCCc3ccn(C4COCC4CO)n3)nc12 (racemic) [Example 121, (+−)-7-amino-3-ethyl-5-((2-(1-(4-(hydroxymethyl)tetrahydrofuran-3-yl)-1H-pyrazol-3-yl)ethyl)amino)-2-methyl pyrazolo[1,5-a]pyrimidine-6-carbonitrile]	245	895
CCc1c(C)nn2c(N)c(C#N)c(NCCc3cccc(CO[C@@H]4CCOC4)n3)nc12 [Example 166, (R)-7-amino-3-ethyl-2-methyl-5-((2-(6-(((tetrahydrofuran-3-yl)oxy)methyl)pyridine-2-yl)ethyl)amino) pyrazolo[1,5-a]pyrimidine-6-carbonitrile]	1420	466
Cc1nn2c(N)c(C#N)c(NCCc3ccn(C4(CO)CC4)n3)nc2c1CC1CC1 [Example 74, 7-amino-3-(cyclopropylmethyl)-5-((2-(1-(1-(hydroxymethyl)cyclopropyl)-1H-pyrazol-3-yl)ethyl)amino)-2-methylpyrazolo[1,5-a]pyrimidine-6-carbonitrile]	398	1080
Cc1nn2c(N)c(C#N)c(NCCc3ccn(C4CCCC4CN)n3)nc2c1Cl (stereo not drawn) [Example 118, 7-amino-5-((2-(1-(2-(aminomethyl)cyclopentyl)-1H-pyrazol-3-yl)ethyl)amino)-3-chloro-2-methylpyrazolo[1,5-a] pyrimidine-6-carbonitrile]	78	7850
Cc1nn2c(N)c(C#N)c(NCCc3cccc(CNCCO)n3)nc2c1Cl [Example 90, 7-amino-3-chloro-5-((2-(6-(((2-hydroxyethyl)amino)methyl)pyridin-2-yl)ethyl)amino)-2-methylpyrazolo[1,5-a]pyrimidine-6-carbonitrile]	77	1830
CCc1c(C)nn2c(N)c(C#N)c(NCCc3ccn(C4CCC4CN)n3)nc12 (stereo not drawn) [Example 109, 7-amino-5-((2-(1-(2-(aminomethyl)cyclobutyl)-1H-pyrazol-3-yl)ethyl)amino)-3-ethyl-2-methylpyrazolo[1,5-a]pyrimidine-6-carbonitrile]	402	723
CCc1c(C)nn2c(N)c(C#N)c(NCCc3ccn(CCCO)n3)nc12 [Example 111, 7-amino-3-ethyl-5-((2-(1-(3-hydroxypropyl)-1H-pyrazol-3-yl)ethyl)amino)-2-methylpyrazolo[1,5-a]pyrimidine-6-carbonitrile]	666	2380
CCc1c(C)nn2c(N)c(C#N)c(NCCc3ccn(C4(CNC(C)=O)CC4)n3)nc12 [Example 147, N-((1-(3-(2-((7-amino-6-cyano-3-ethyl-2-methylpyrazolo[1,5-a]pyrimidin-5-yl)amino)ethyl)-1H-pyrazol-1-yl)cyclopropyl)methyl) acetamide]	363	9080
CCc1c(C)nn2c(N)c(C#N)c(NCCc3ccn(C4(CN)CC4)n3)nc12 [Example 146, 7-amino-5-((2-(1-(1-(aminomethyl)cyclopropyl)-1H-pyrazol-3-yl)ethyl)amino)-3-ethyl-2-methylpyrazolo[1,5-a]pyrimidine-6-carbonitrile]	255	2470
Cc1nn2c(N)c(C#N)c(NCCc3ccn(C4CCC4CO)n3)nc2c1C (single isomer, unassigned; (+)) [Example 104a, (+)-7-amino-5-((2-(1-(2-(hydroxymethyl)cyclobutyl)-1H-pyrazol-3-yl)ethyl)amino)-2,3-dimethylpyrazolo[1,5-a]pyrimidine-6-carbonitrile]	88	2260
Cc1nn2c(N)c(C#N)c(NCCc3cccc(CCO)n3)nc2c1C [Example 152, 7-amino-5-((2-(6-(2-hydroxyethyl)pyridin-2-yl)ethyl)amino)-2,3-dimethylpyrazolo[1,5-a] pyrimidine-6-carbonitrile]	209	1790
Cc1nn2c(N)c(C#N)c(NCCc3cccc(CNCCO)n3)nc2c1C [Example 105, 7-amino-5-((2-(6-(((2-hydroxyethyl)amino)methyl)pyridin-2-yl)ethyl)amino)-2,3-dimethylpyrazolo[1,5-a]pyrimidine-6-carbonitrile]	–	3870
Cc1nn2c(N)c(C#N)c(NCCc3ccn(C4COCC4CO)n3)nc2c1C (racemic) [Example 132, (+−)-7-amino-5-((2-(1-(4-(hydroxymethyl)tetrahydrofuran-3-yl)-1H-pyrazol-3-yl)ethyl)amino)-2,3-dimethylpyrazolo[1,5-a]pyrimidine-6-carbonitrile]	248	–
CCc1c(C)nn2c(N)c(C#N)c(NCCc3cccc(CNCCOC)n3)nc12 [Example 96, 7-amino-3-ethyl-5-((2-(6-(((2-methoxyethyl)amino)methyl)321yridine-2-yl)ethyl)amino)-2-methylpyrazolo[1,5-a]pyrimidine-6-carbonitrile]	456	–
